According to US4861788A, “Antibacterial 1-normon-2-yl-heterocyclic compounds” (Beecham Group plc, priority 1983, dated 1989):
Converted amounts (≈) assume the structure as drawn. Like-named read-outs stand apart in the source and are kept apart here.

How the values were obtained:
M. hyopneumoniae NB12 = test: MIC against Mycoplasma in vitro (Friis broth with agarose); assay type: cell-based; details: Mesomycoplasma hyopneumoniae
M. hyopneumoniae MS 16 = test: as above; assay type: cell-based; details: Mesomycoplasma hyopneumoniae, MS16, 144 h; M. hyopneumoniae MS 16; 6 days at 37° C; read-out: MIC
[1] = tested on: M. hyopneumoniae PW/C/210; test: as above; assay type: cell-based; details: Mesomycoplasma hyopneumoniae, 144 h; M. hyopneumoniae PW/C/210; 6 days at 37° C; read-out: MIC
[2] = tested on: M. hyopneumoniae ATCC 25095; test: as above; assay type: cell-based; details: Mesomycoplasma hyopneumoniae, ATCC25095, 144 h; M. hyopneumoniae ATCC 25095; 6 days at 37° C; read-out: MIC
[3] = tested on: M. hyopneumoniae NCTC 101101; test: as above; assay type: cell-based; details: Mesomycoplasma hyopneumoniae, NCTC101101, 144 h
M. hyorhinis ATCC 25021 = test: as above; assay type: cell-based; details: Mesomycoplasma hyorhinis, ATCC25021, 144 h; M. hyorhinis ATCC 25021; 6 days at 37° C; read-out: MIC
[4] = tested on: M. hyosynoviae ATCC 25591; test: as above; assay type: cell-based; details: 144 h; M. hyosynoviae ATCC 25591; 6 days at 37° C; read-out: MIC
M. bovis NCTC 10131 = test: microbe, parasite or virus in culture; assay type: cell-based; details: NCTC10131, 144 h
[5] = tested on: M. bovigenitalium ATCC 14173; test: MIC against Mycoplasma in vitro (Friis broth with agarose); assay type: cell-based; details: 144 h; M. bovigenitalium ATCC 14173; 6 days at 37° C; read-out: MIC
M. dispar NCTC 10125 = test: as above; assay type: cell-based; details: 144 h
[6] = tested on: Neisseria catarrhalis 1502; test: MIC against human bacteria in vitro (nutrient agar, chocolated horse blood); assay type: cell-based; details: human; Neisseria catarrhalis 1502; 18 hours at 37° C; read-out: MIC
Outline: (§1)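 Compounds were tested in vitro by serial dilution in nutrient agar containing 5% chocolated horse blood, and the MIC was read as the lowest inhibitory concentration.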

E. coli NCTC 10418 = test: MIC against veterinary bacteria in vitro (Diagnostic Sensitivity Test Agar); details: Escherichia coli, NCTC10418, 18 h
Description: (§2) The activity of the normonyl derivatives of the Examples against various veterinarily important bacteria, was assayed in vitro using two-fold serial dilutions in Diagnostic Sensitivity Test Agar inoculated with 10^4 organisms.

E. coli E1 = test: as above; details: Escherichia coli, E1, 18 h
Description: as §2

S. dublin S7 = test: as above; details: Salmonella enterica, S7, 18 h
Description: as §2

Bord. bronchiseptica B08 = test: as above; details: Bordetella bronchiseptica, B08, 18 h
Description: as §2

Bord. bronchiseptica B09 = test: as above; details: Bordetella bronchiseptica, B09, 18 h
Description: as §2

Past. multocida PA1 = test: as above; details: Pasteurella multocida, PA1, 18 h
Description: as §2

Past. multocida PA2 = test: as above; details: Pasteurella multocida, PA2, 18 h
Description: as §2

[7] = tested on: Erysipelothrix rhusiopathiae NCTC 8163; test: as above; details: NCTC8163, 18 h
Description: as §2

Strep. uberis SPU1 = test: as above; details: Streptococcus uberis, SPU1, 18 h
Description: as §2

Strep. agalactiae SPA1 = test: as above; details: Streptococcus agalactiae, SPA1, 18 h
Description: as §2

B. subtilis ATCC 6633 = test: as above; details: Bacillus subtilis, ATCC6633, 18 h
Description: as §2

M. hyopneumoniae HK (2) = test: MIC against Mycoplasma in vitro (Friis broth with agarose); assay type: cell-based; details: Mesomycoplasma hyopneumoniae, 144 h; M. hyopneumoniae HK (2); 6 days at 37° C; read-out: MIC
[8] = tested on: Haemophilus influenzae Q1; test: MIC against human bacteria in vitro (nutrient agar, chocolated horse blood); assay type: cell-based; details: human; Haemophilus influenzae Q1; 18 hours at 37° C; read-out: MIC
Outline: as §1

Strep. pneumoniae CN33 = test: as above; assay type: cell-based; details: Streptococcus pneumoniae; human; Strep. pneumoniae CN33; 18 hours at 37° C; read-out: MIC
Outline: as §1

M. hyopneumoniae LABER = test: MIC against Mycoplasma in vitro (Friis broth with agarose); assay type: cell-based; details: Mesomycoplasma hyopneumoniae, 144 h; M. hyopneumoniae LABER; 6 days at 37° C; read-out: MIC
[9] = 144 h, M. hyopneumoniae NB12, 6 days at 37° C, read-out: MIC
[10] = M. hyopneumoniae NCTC 101101, 6 days at 37° C, read-out: MIC
[11] = M. dispar NCTC 10125, 6 days at 37° C, read-out: MIC

SMILES	MIC (M. hyopneumoniae MS 16) [µg/mL]	MIC [1] [µg/mL]	MIC [2] [µg/mL]	MIC (M. hyorhinis ATCC 25021) [µg/mL]	MIC [4] [µg/mL]	MIC (M. bovis NCTC 10131) [µg/mL]	MIC [5] [µg/mL]	MIC [6] [µg/mL]	MIC (E. coli NCTC 10418) [µg/mL]	MIC (E. coli E1) [µg/mL]	MIC (S. dublin S7) [µg/mL]	MIC (Bord. bronchiseptica B08) [µg/mL]	MIC (Bord. bronchiseptica B09) [µg/mL]	MIC (Past. multocida PA1) [µg/mL]	MIC (Past. multocida PA2) [µg/mL]	MIC [7] [µg/mL]	MIC (Strep. uberis SPU1) [µg/mL]	MIC (Strep. agalactiae SPA1) [µg/mL]	MIC (M. hyopneumoniae NB12; [9]) [µg/mL]	MIC (M. hyopneumoniae HK (2)) [µg/mL]	further results
CC(=Cc1nnc(-c2cccc(C#N)c2)o1)CC1OCC(CC2OC2C(C)C(C)O)C(O)C1O (centres unmarked) [Example 11, 2-(m-Cyanophenyl)-5-(1-normon-2-yl)-1,3,4-oxadiazole A]	0.1 (≈ 0.213 µM)	0.1 (≈ 0.213 µM)	0.25 (≈ 0.532 µM)	0.1 (≈ 0.213 µM)	0.5 (≈ 1.06 µM)	0.05 (≈ 0.106 µM)	0.1 (≈ 0.213 µM)	0.25 (≈ 0.532 µM)	> 80	> 80	> 80	> 80	40 (≈ 85.2 µM)	2.5 (≈ 5.32 µM)	0.312 (≈ 0.664 µM)	40 (≈ 85.2 µM)	2.5 (≈ 5.32 µM)	5 (≈ 10.6 µM)			MIC (M. hyopneumoniae NB12; NB12, 144 h): 0.25 µg/mL (≈ 0.532 µM); MIC [3]: 0.25 µg/mL (≈ 0.532 µM); MIC (M. dispar NCTC 10125): 0.05 µg/mL (≈ 0.106 µM); MIC (B. subtilis ATCC 6633): 2.5 µg/mL (≈ 5.32 µM)
CC(=Cc1nnnn1Cc1ccc([N+](=O)[O-])cc1)CC1OCC(CC2OC2C(C)C(C)O)C(O)C1O (centres unmarked) [Example 12, 1-(p-Nitrobenzyl)-5-(1-normon-2-yl)tetrazole A]	2.5 (≈ 4.96 µM)	2.5 (≈ 4.96 µM)	5 (≈ 9.93 µM)	2.5 (≈ 4.96 µM)	2.5 (≈ 4.96 µM)	0.1 (≈ 0.199 µM)		10 (≈ 19.9 µM)	> 80	> 80	> 80	> 80	> 80	> 80	> 80	> 80	80 (≈ 159 µM)	> 80	5 (≈ 9.93 µM)	5 (≈ 9.93 µM)	MIC [3, 10]: 5 µg/mL (≈ 9.93 µM); MIC (M. dispar NCTC 10125): 1 µg/mL (≈ 1.99 µM); MIC [8]: 1 µg/mL (≈ 1.99 µM); MIC (Strep. pneumoniae CN33): 100 µg/mL (≈ 199 µM)
COC(=O)CCCCCCCCn1nnnc1C=C(C)CC1OCC(CC2OC2C(C)C(C)O)C(O)C1O (centres unmarked) [Example 13, 1-(8-Methoxycarbonyloctyl)-5-(1-normon-2-yl)-1H-tetrazole A]	> 10	> 10	> 10	> 10	> 10	1 (≈ 1.86 µM)	5 (≈ 9.28 µM)	64 (≈ 119 µM)	> 80	> 80	> 80	> 80	80 (≈ 149 µM)	40 (≈ 74.3 µM)	5 (≈ 9.28 µM)	> 80	40 (≈ 74.3 µM)	> 80	> 10	> 10	MIC (M. hyopneumoniae LABER): > 10 µg/mL; MIC [3, 10]: > 10 µg/mL; MIC (M. dispar NCTC 10125; [11]): > 10 µg/mL; MIC (Strep. pneumoniae CN33): > 64 µg/mL
CC(=Cc1nnnn1CCCCCCCCC(=O)O)CC1OCC(CC2OC2C(C)C(C)O)C(O)C1O (centres unmarked) [Example 14, Sodium 1-(8-carboxylatooctyl)-5-(1-normon-2-yl)-1H-tetrazole A]	> 10		> 10	> 10	> 10	5	10	> 128	> 80	> 80	> 80	> 80	> 80	80	1.25	> 80	> 80	> 80	> 10	> 10	MIC (M. hyopneumoniae LABER): > 10 µg/mL; MIC [3, 10]: > 10 µg/mL; MIC (M. dispar NCTC 10125; [11]): 10 µg/mL; MIC (Strep. pneumoniae CN33): > 128 µg/mL
